The values below come from patent US9220794B2, “Two-photon fluorescent probes for imaging of total sulfide in live cell and tissue, and quantitative estimation of total sulfide concentration using the same” (Korea University Research and Business Foundation, priority 2013, dated 2015).

The test system of series [1] is rat colon tissue. Kind of series: Kinetic measurement of total sulfide in rat colon tissue slices. The conditions noted are these: probe 2-6; for kobs in colon tissue: after 5-FU 150 mg/kg i.p., 8 hours; for total sulfide concentration in colon tissue: after 5-FU treatment. The class given is in vivo. Here is the method:
To quantitatively estimate the total sulfide concentration, kinetic experiments were performed in the colon tissue labeled with the compound of [Chemical Formula 2-6].
(§1) Male Sprague-Dawley rats (235-265 g) were divided into two groups (5-FU and control groups). In the 5-FU group, 150 mg/kg of 5-FU (SoloPak Laboratories, Franklin Park, Ill.) were intraperitoneally injected into the rats. The rats of the control group were injected with saline. Each group consisted of 4 rats.
(§2) 8 hours after the intraperitoneal injection, all the rats were sacrificed. Laparotomy was performed after anesthetizing the rats.
Kinetic experiments in rat colon tissue were performed using four colon slices obtained from four rats. Two sets of experiments were performed for each slice. In each set, TPEF intensities from 8 ROI's/section were collected at depths of 90-150 μm (mucosa) and 151-170 μm (submucosa) in the colon tissue labeled with the compound of [Chemical Formula 2-6] and averaged.
The rate constant (kobs) was measured from 7 and 3 sections of the mucosa and submucosa tissues, respectively, in order to obtain 112 kobs and 48 kobs values, respectively. The rate constant (kobs) was expressed as mean±SD and p was set to be smaller than 0.05.

The test system of series [2] is rat colon tissue. Kind of series: Ratiometric TPM imaging (F2/F1) of rat colon slices. The class given is in vivo. The conditions noted are these: rats given 5-FU 150 mg/kg i.p., 8 hours, probe 2-6. Here is the method: The utility of the compound of [Chemical Formula 2-6] was investigated in living tissues from a 5-week-old rat colon. The inventors were particularly interested in the mucosa, muscularis mucosae and submucosa because they are invaded in the early stage of tumor (FIG. 4c). Since it takes a long time to stain the tissues during which they may be deformed, excess amount (20 μM) of the compound of [Chemical Formula 2-6] was used to facilitate staining.
Because the structure of the colon tissue is heterogeneous, TPEF intensities were acquired from 150 sections along the z-direction at a depth of about 90-170 μm using two detection windows (1 and 2) to visualize the overall sulfide distribution.
Therefore, the sections were divided into two regions and they were assigned as mucosa (90-150 μm) and submucosa including the muscularis mucosae (151-170 μm).
as §1
All the rats were injected between 9 pm and 12 midnight, were allowed free access to food and water and were housed in the same room with 8-hour cycles.
as §2
Slices were prepared from the colon of the rats. The colon slices were cut into 2-cm long segments, opened by longitudinal incision and then treated with Dulbecco's phosphate-buffered saline (D-PBS; […]).
The colon slices were incubated with the compound of [Chemical Formula 2-6] (20 μM) in D-PBS bubbled with 95% O2 and 5% CO2 at 37° C. The colon slices were then moved to glass-bottomed dishes, washed 3 times with D-PBS and observed under a confocal multiphoton microscope.
TPEF intensities were collected using detection windows of 390-450 nm and 520-650 nm, with 110 sections at a depth of 90-150 μm (mucosa) and 40 sections at a depth of 151-170 μm (submucosa).
Then ratiometric images were constructed from the TPEF intensities collected using the two detection window. The F2/F1 ratio was expressed as mean±SD and p was set to be smaller than 0.05.

Series [3] is described as follows: One-photon absorption and emission spectra, fluorescence quantum yield. The class given is physicochemical. The conditions noted are these: for 10^−4 ε: value is ε×10^−4. The protocol: The solvatochromic effect observed for the compound of [Chemical Formula 2-6] may have resulted from the […] dipole moment.
Absorption spectra were recorded on the Hewlett-Packard 8453 diode array spectrophotometer and fluorescence spectra were obtained with the Amico-Bowman series 2 luminescence spectrometer with a 1-cm standard quartz cell.

A short description of series [4]: pH sensitivity of the fluorescence. The conditions noted are these: biologically relevant pH range. The class given is physicochemical.
A short description of series [5]: Measurement of two-photon cross section (fs fluorescence technique, rhodamine 6G reference). The class given is physicochemical. The conditions noted are these: for Φδmax, two-photon action cross section: uncertainty ±15%. The protocol:
Two-photon cross section (δ) was determined using a femtosecond (fs) fluorescence measurement technique.
The compound of [Chemical Formula 2-5] and the compound of [Chemical Formula 2-6] were dissolved in 20 mM HEPES buffer (pH 7.2) and 3.0×10^−6 M HEPES/EtOH (1/1) and then two-photon induced fluorescence intensity was measured at 740-940 nm using rhodamine 6G as a reference, whose two-photon property has been well characterized. The two-photon fluorescence intensities of the reference and the compound of [Chemical Formula 2-6] and the compound of [Chemical Formula 2-5] were determined.
The two-photon cross section was calculated from δ=δr(Ssφrφrcr)/(Srφsφscs). In the equation, the subscripts s and r stand for the sample, i.e., the compound of [Chemical Formula 2-6] and the compound of […], respectively. S denotes the intensity of the signal collected using a CCD detector, φ is the fluorescence quantum yield (measured using coumarin 307 and rhodamine B according to the literature), […] fluorescence collection efficiency, and c is the number density of molecules in solution. δr is the two-photon cross section of the reference molecule.

The test system of series [6] is HeLa cells. The series is described as follows: Two-photon excited fluorescence spectra of labeled HeLa cells. The class given is cell-based, human. The protocol:
Accordingly, it can be seen that HEPES/EtOH (1/1) has polarity similar to that of the cellular environment.
This confirms again that HEPES/EtOH (1/1) is a good model of the cellular environment and HS^− can be detected by TPM using the compound of [Chemical Formula 2-6].
HeLa human cervical carcinoma cells were acquired from the ATCC (Manassas, Va., USA). The cells were cultured in DMEM (WelGene, Inc., Seoul, Korea) supplemented with heat-inactivated 10% FBS (WelGene), penicillin (100 units/mL) and streptomycin ([…]).
For labeling, the growth medium was removed and replaced with DMEM without FBS. The cells were incubated with the compound of [Chemical Formula 2-6] ([…]) for 30 minutes, washed 3 times with FBS-free DMEM and imaged.
The TPM images were obtained with the DM IRE2 microscope (Leica) by exciting the probes with a mode-locked titanium-sapphire laser source (Coherent Chameleon, 90 MHz, 200 fs) set at a wavelength of 750 nm and an output power of 1380 mW, which corresponded to an average power of approximately 2 mW in the focal plane.

Series [7] relates to HeLa cells. The series is described as follows: Kinetic estimation of total sulfide concentration in HeLa cells (TPEF). The class given is cell-based, human. Here is the method:
To quantitatively estimate the total sulfide concentration in living cells, the TPEF intensity of HeLa cells labeled with the compound of [Chemical Formula 2-6] was monitored in the absence and presence of Na2S, cysteine (Cys) and glutathione (GSH) with 20-30 minute intervals.
Since H2S and HS^− are in equilibrium and [H2S]/[HS^−]=[H^+]/Ka=0.794 in HEPES/EtOH (1/1, pH=7.2), it seems appropriate to present the total sulfide concentration ([H2S]+[HS^−]).
Kinetic experiments in HeLa cells were conducted in the same manner except that TPEF intensities from HeLa cells labeled with the compound of [Chemical Formula 2-6] upon excitation at 750 nm were monitored with 20-30 minute intervals.
The average TPEF intensities at given time and the SB2/SA1 ratio was obtained by dividing the TPEF intensity of [Chemical Formula 2-6] at 390-450 nm by that of [Chemical Formula 2-5] at 525-650 nm in the HeLa cells (FIG. 1b) were used in the kobs calculation.
The kobs value was measured at 10 regions of interest (ROIs) from three independent cell lines.
To evaluate the effect of Na2S, cysteine and GSH, HeLa cells were incubated with the compound of [Chemical Formula 2-6] (2 μM) and then treated with Na2S (100, 300 μM), cysteine (500 μM) and GSH (500 μM) for 30 minutes. The cells were then washed 3 times with FBS-free DMEM and subjected to kinetic measurement.

A short description of series [8]: physchem. Conditions: pH 7.2.
Procedure: The pKa value of H2S in HEPES/EtOH (1/1, pH 7.2) was estimated by using the following equations. HS^−+H2O⇄H2S+HO^− K1=[H2S][HO^−]/[HS^−] (1) H2O⇄H^++HO^− Kw=[H^+][HO^−] (2) H2S⇄H^++HS^− Ka=[H^+][HS^−]/[H2S]=Kw/K1 (3)
First, the pH of the solution containing 10.0 mM NaSH was measured in H2O/EtOH (1/1) at 37.0° C. using a pH meter.
The K1 value was calculated from the equation (1) using [HS^−]o=10.0 mM and pH=9.00.
The pKa value of H2S in HEPES/EtOH (1/1, pH 7.2) was then calculated from the equation (3) using K1=1.00×10^−8M and pKw=15.10 reported in H2O/EtOH (1/1).
[9] abbreviates: HEPES buffer (20 mM HEPES, 100 mM KCl, pH 7.4).
Where [10] appears, read: cells treated with 500 μM additive, probe 2-6.

On to `O=c1[nH]cc(F)c(=O)[nH]1` [5-fluorouracil, reference compound], for which the entries for the “kobs in colon tissue” value in series [1] (mucosa) and in series [1] (submucosa) were “(4.0±0.7)×10^−5 s^−1” and “(2.3±0.6)×10^−5 s^−1”, respectively. The “total sulfide concentration in colon tissue” value in series [1] (mucosa) turned out to be 14 ± 3 µM; in series [1] (submucosa), 7.9 ± 2.2 µM. The “emission ratio F2/F1” value in series [2] (mucosal layer) is 0.98±0.07; in series [2] (submucosa) it was 0.84±0.05.
Consider `COCCOCCC1(CCOCCOC)c2cc(N)ccc2-c2ccc(-c3nc4ccccc4s3)cc21` [Chemical Formula 2-5], for which the “Δλ^FImax, shift of emission spectrum with solvent polarity” value in series [3] (1,4-dioxane<DMF<EtOH<HEPES/EtOH (1/1)<HEPES buffer) turned out to be 95 nm. Further, the “Φ, fluorescence quantum yield” value in series [3] (EtOH) worked out at 0.87; in series [3] (HEPES buffer), 0.46; in series [3] (HEPES/EtOH (1/1)), 0.81. Besides, the “λ^(1)max, one-photon absorption maximum” value was determined as 381 nm in series [3] (EtOH), 363 nm in series [3] (setting [9]) and 368 nm in series [3] (HEPES/EtOH (1/1)). Moreover, the “λ^flmax, one-photon emission maximum” value in series [3] (EtOH) is 498 nm; in series [3] (setting [9]), 548 nm; in series [3] (HEPES/EtOH (1/1)), 530 nm. In addition, the “10^−4 ε” value was “(4.81) M^−1cm^−1” in series [3] (EtOH), “(4.77) M^−1cm^−1” in series [3] (HEPES/EtOH (1/1)) and “(3.91) M^−1cm^−1” in series [3] (HEPES). Moreover, the “ε at maximum absorption” value in series [3] (HEPES buffer, pH 7.4) was 39100 M⁻¹ cm⁻¹. The pH sensitivity result in series [4] was “pH-insensitive”. The “λ^(2)max, two-photon maximum” value in series [5] (HEPES) and in series [5] (HEPES/EtOH (1/1)) was 750 nm in each case. The “Φδmax, two-photon action cross section” value in series [5] (HEPES buffer, 2-6 at 740 nm, 2-5 at 750 nm) is given as 52 GM; in series [5] (HEPES/EtOH (1/1), GM = 10^−50 cm^4s/photon), 94 GM. Further, the “increase of action cross section (φδ) in HEPES/EtOH (1/1) versus HEPES buffer” value in series [5] (HEPES/EtOH (1/1) vs HEPES buffer) was “about 2 fold”. In series [6], the “λ^flmax, maximum emission in cells” value was determined as 520 nm.
Take `N[C@@H](CS)C(=O)O` [Cys, cysteine]: in series [7] (setting [10]), the “kobs in labeled HeLa cells” value is on record as “(1.4±0.7)×10^−6 s^−1” and the “total sulfide concentration ([H2S]+[HS^−]) in HeLa cells” value is 0.50 ± 0.23 µM.
The matching figures for `N[C@@H](CCC(=O)N[C@@H](CS)C(=O)NCC(=O)O)C(=O)O` [GSH, glutathione]: “(6.3±1.8)×10^−6 s^−1” and 2.2 ± 0.6 µM.
As for `S` [H2S, Hydrogen sulfide], the pKa in series [8] was 7.1.
Turning to `[Na+].[Na+].[S-2]` [Na2S], the “kobs in labeled HeLa cells” value is reported as “(2.6±0.9)×10^−6 s^−1” in series [7] (cells pretreated with 100 μM Na2S, probe 2-6) and “(7.9±1.9)×10^−6 s^−1” in series [7] (cells pretreated with 300 μM Na2S, probe 2-6). The “total sulfide concentration ([H2S]+[HS^−]) in HeLa cells” value in series [7] (cells pretreated with 100 μM Na2S, from kobs, k2=5.17 M^−1s^−1, [H2S]/[HS^−]=0.794) is 0.90 ± 0.32 µM; in series [7] (cells pretreated with 300 μM Na2S, from kobs, k2=5.17 M^−1s^−1, [H2S]/[HS^−]=0.794) it was 2.7 ± 0.7 µM.
